Data on two compounds can be found in patent EP0082577A1, “Fungicidal composition and method of combating fungal growth” (SHELL INTERNATIONALE RESEARCH MAATSCHAPPIJ B.V., priority 1981, dated 1983).

Where a name gives a salt, the structure may show the parent alone.

What all share (format): in vivo
Data set [1] relates to Plamopara viticola. Kind of data set: Grapevine leaf disc test: disease suppression. As to conditions: alone, 7 days at 21°C. As to the method: Leaf discs of grapevine (cv. Cabernet Sauvignon) 23mm in diameter, were supported on water agar in petri dishes, and sprayed with various aqueous test preparations. After the spray had dried, the discs were inoculated with Plamopara viticola. The dishes were closed and incubated for 7 days at 21°C. At the end of this period, the percentage area of each disc covered with sporulating downy mildew was estimated, and compared with that on inoculated, untreated control discs.
In this Table, the theorectical degree of disease suppression, assuming that the two fungicides act independently (i.e. additively) is calculated using the formula: [formula] where x and y are the activities of the two components used separately. If the actual degree of disease suppression (as measured in the test) is greater than the calculated value, then the two fungicides have interacted synergistically.

Data set [2] relates to grapevines (cv Sauvignon). Kind of data set: Field spray test on adult fruit-bearing grapevines: phytotoxicity rating. Conditions: mean rating 0-5. How it is done:
(§1) The fungicidal and phytotoxic effects of the sodium salt of N-hydroxy-N-formylalanine in admixture with N-(trichlormethyl- thio)phthalimide were compared to those of the N-hydroxy-N-formylalanine salt alone using the following procedure. The test solutions were sprayed onto adult, fruit-bearing grapevines (cv Sauvignon) at 18 day intervals during June, July and August. Four replicate plots were treated. Controls were left untreated.
(§2) The test solutions contained the active ingredient(s), distilled water and 100ppm of Tween 20 surfactant (Trade mark).
(§3) Assessments of the disease level and phytotoxicity were made 19 days after the 1st treatment, and then after a further 4 weeks (11 days after the 3rd treatment) .
Phytotoxicity is expressed as a mean rating compared with the control according to the criteria, • 0 = absolutely no phytotoxicity • 1 = doubtful occurence of phytotoxicity • 2 = distinct, but very slight phytotoxicity • 3,4 = slight to moderate phytotoxicity • 5 = phytotoxicity of an unacceptable degree.

In data set [3] the test system is Plasmopara viticola. Kind of data set: Field spray test on adult fruit-bearing grapevines: disease level. As to conditions: percentage of disease level on control vines. As to the method: as §1, §2
Seven days after the first spray application and 13 days after the third spray application the vines were innoculated with a spore suspension containing Plasmopara viticola.
as §3
The extent of disease control in the test is expressed as a percentage of the disease level occuring on the control vines.

[4] abbreviates: 250 ppm sodium salt alone, 11 days after 3rd application.
Setting [5] is: 250 ppm sodium salt alone, 19 days after 1st application.
[6] abbreviates: 500 ppm sodium salt alone, 11 days after 3rd application.
The mark [7] stands for this setting: 500 ppm sodium salt alone, 19 days after 1st application.

As for `O=C1c2ccccc2C(=O)N1SC(Cl)(Cl)Cl` [N-(trichloromethylthio) phthalimide, N-(trichloromethylthio)phthalimide, reference compound], the “Disease Suppression (% of control) Actual” value in data set [1] (1 ppm in spray) was -16.2 % of control; in data set [1] (5 ppm in spray) it was -2.7 % of control; in data set [1] (10 ppm in spray) it was 82.4 % of control.

Consider `CC(C(=O)O)N(O)C=O` (centres unmarked) [sodium salt of N-hydroxy-N-formylalanine], for which the figures for the “Disease Suppression (% of control) Actual” value in data set [1] (7.5 ppm in spray), in data set [1] (15.0 ppm in spray) and in data set [1] (30.0 ppm in spray) were -8.1 % of control, -2.7 % of control and 37.8 % of control, respectively. Further, the PHYTOTOXICITY in data set [2] (setting [4]) was found to be 0.8; in data set [2] (setting [5]), 0.5; in data set [2] (setting [6]) it was 1.5; in data set [2] (setting [7]) it was 2.0. The DISEASE in data set [3] (setting [4]) was found to be 26.8%; in data set [3] (setting [5]), 34.7%; in data set [3] (setting [6]), 14.4%; in data set [3] (setting [7]), 17.6%.
